# Laboratory results published in ChEMBL document CHEMBL4616610, “Discovery of a novel unsymmetrical structural class of HCV NS5A inhibitors with low picomolar antiviral activity” (Bioorg Med Chem Lett, 2020).
# Columns and labels:
# Nonstructural protein 5A = target: T1, Nonstructural protein 5A (Hepatitis C virus, UniProt Q5L478); assay: Inhibition of NS5A in Hepatitis C virus subtype 1b replicon infected in human HuH7 cells assessed as reduction in viral replication; format: cell-based; conditions: huh-7
# T1 sequence (Q5L478 whole entry): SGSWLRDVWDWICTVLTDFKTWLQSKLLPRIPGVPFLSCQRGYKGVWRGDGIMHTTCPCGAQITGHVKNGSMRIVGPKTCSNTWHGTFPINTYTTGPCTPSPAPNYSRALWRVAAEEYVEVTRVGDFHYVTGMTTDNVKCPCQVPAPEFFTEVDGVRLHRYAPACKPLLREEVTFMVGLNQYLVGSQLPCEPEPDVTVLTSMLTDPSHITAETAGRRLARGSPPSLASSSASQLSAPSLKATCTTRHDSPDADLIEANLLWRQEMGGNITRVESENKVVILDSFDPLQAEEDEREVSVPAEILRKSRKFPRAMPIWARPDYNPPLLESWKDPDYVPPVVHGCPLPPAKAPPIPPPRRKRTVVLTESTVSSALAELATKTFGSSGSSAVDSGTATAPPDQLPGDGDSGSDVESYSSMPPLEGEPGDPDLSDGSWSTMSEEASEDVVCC
# [1] = Inhibition of NS5A Q30K mutant in Hepatitis C virus subtype 1a replicon infected in human HuH7 cells assessed as reduction in viral replication; format: cell-based; conditions: Huh-7
# [2] = Inhibition of NS5A Q30K mutant in Hepatitis C virus subtype 1a replicon assessed as reduction in viral replication using Ac-Asp-Glu-Asp (EDANS)-Glu-Glu-Abu-(COO) Ala-Ser-Lys (DABCYL)-NH2 as substrate measured after 72 hrs by FRET assay
# [3] = Inhibition of NS5A in Hepatitis C virus subtype 1b replicon assessed as reduction in viral replication using Ac-Asp-Glu-Asp (EDANS)-Glu-Glu-Abu-(COO) Ala-Ser-Lys (DABCYL)-NH2 as substrate measured after 72 hrs by FRET assay
SMILES,EC50 (Nonstructural protein 5A),also measured
CCCC(=O)Nc1ccc(-c2ccc(-c3c[nH]c([C@@H]4CCCN4C(=O)[C@H](NC(=O)N4CCCC4)c4ccccc4)n3)cc2)cc1,Not Active,–
CCCC(=O)Nc1ccc(-c2ccc(-c3c[nH]c([C@@H]4CCCN4C(=O)[C@H](NC(=O)c4ccccc4NC(=O)OCc4ccccc4)c4ccccc4)n3)cc2)cc1,Not Active,–
CCCC(=O)Nc1ccc(-c2ccc(-c3c[nH]c([C@@H]4CCCN4C(=O)[C@H](NC(=O)c4ccc(NC(=O)OCc5ccccc5)cc4)c4ccccc4)n3)cc2)cc1,Not Active,–
COC1CCN(C(=O)Nc2ccc(-c3ccc(-c4c[nH]c([C@@H]5CCCN5C(=O)[C@H](NC(=O)N5CC[C@@H](NC(=O)OCc6ccccc6)C5)c5ccccc5)n4)cc3)cc2)CC1,–,EC50 [1]: 4.7 nM
CCCC(=O)Nc1ccc(-c2ccc(-c3c[nH]c([C@@H]4CCCN4C(=O)[C@H](NC(=O)CCCCCCc4ccccc4)c4ccccc4)n3)cc2)cc1,Not Active,–
CCCC(=O)Nc1ccc(-c2ccc(-c3c[nH]c([C@@H]4CCCN4C(=O)[C@H](NC(=O)N4CCC[C@H](NC(=O)OCc5ccccc5)C4)c4ccccc4)n3)cc2)cc1,Not Active,–
CCCC(=O)Nc1ccc(-c2ccc(-c3c[nH]c([C@@H]4CCCN4C(=O)[C@H](NC(=O)c4ccccc4)c4ccccc4)n3)cc2)cc1,Not Active,–
CCCC(=O)Nc1ccc(-c2ccc(-c3c[nH]c([C@@H]4CCCN4C(=O)[C@H](NC(=O)CCCc4ccccc4)c4ccccc4)n3)cc2)cc1,Not Active,–
COC(=O)N[C@H](C(=O)N1CCC[C@H]1c1ncc(-c2ccc(-c3ccc(-c4cnc([C@@H]5CCCN5C(=O)[C@@H](NC(=O)OC)C(C)C)[nH]4)cc3)cc2)[nH]1)C(C)C [DACLATASVIR],–,EC50 [2]: 1230 nM; EC50 [3]: 0.009 nM
